Results taken from ChEMBL document CHEMBL1132779, “The design and synthesis of novel NK1/NK2 dual antagonists” (Bioorg Med Chem Lett, 2000).

Legend:
[1] = biological target: T1, Substance-K receptor (Homo sapiens, UniProt P21452); assay: Binding affinity towards Tachykinin receptor 2 in CHO cells using [3H]-neurokinin A as radioligand; type: cell-based
T1 sequence (P21452 whole entry): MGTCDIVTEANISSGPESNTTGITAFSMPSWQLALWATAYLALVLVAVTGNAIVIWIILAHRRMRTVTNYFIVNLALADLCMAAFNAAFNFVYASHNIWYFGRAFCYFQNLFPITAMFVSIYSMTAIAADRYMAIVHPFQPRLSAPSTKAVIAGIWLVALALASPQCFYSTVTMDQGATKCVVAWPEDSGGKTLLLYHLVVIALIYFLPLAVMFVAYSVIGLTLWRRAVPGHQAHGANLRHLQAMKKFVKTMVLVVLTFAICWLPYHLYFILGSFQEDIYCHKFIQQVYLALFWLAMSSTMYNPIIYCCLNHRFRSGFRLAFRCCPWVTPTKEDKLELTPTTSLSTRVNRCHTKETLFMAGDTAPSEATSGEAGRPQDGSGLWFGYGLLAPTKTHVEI

[2] = biological target: Substance-P receptor (Homo sapiens, UniProt P25103); assay: Binding affinity towards Tachykinin receptor 1 in CHO cells using [3H]-Sar SP as radioligand; type: cell-based
[3] = biological target: T2, Substance-K receptor (Homo sapiens) (UniProt P21452); conditions: 0.1 uM
T2 sequence (whole entry): T1 sequence (P21452 whole entry)
Description: Inhibitory activity against Tachykinin receptor 2 at a concentration of 0.1 uM

[4] = biological target: T2, Substance-K receptor (Homo sapiens); conditions: 1 uM
Description: Inhibitory activity against Tachykinin receptor 2 at a concentration of 1 uM

Sequence of Substance-P receptor (P25103 whole entry): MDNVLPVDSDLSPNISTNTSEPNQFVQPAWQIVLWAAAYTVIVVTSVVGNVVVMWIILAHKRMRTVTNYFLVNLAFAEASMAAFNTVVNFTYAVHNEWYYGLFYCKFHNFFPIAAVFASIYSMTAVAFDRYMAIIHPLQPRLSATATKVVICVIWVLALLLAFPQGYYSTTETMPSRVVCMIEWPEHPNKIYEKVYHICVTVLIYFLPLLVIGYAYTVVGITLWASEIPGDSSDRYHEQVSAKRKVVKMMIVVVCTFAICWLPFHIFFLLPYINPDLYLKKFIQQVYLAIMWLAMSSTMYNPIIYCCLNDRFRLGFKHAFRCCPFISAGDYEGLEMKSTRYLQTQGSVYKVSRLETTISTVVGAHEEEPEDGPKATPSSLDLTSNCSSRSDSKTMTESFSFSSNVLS

| SMILES | Ki [1] [nM] | Ki [2] [nM] | inhibition [3] [%] | inhibition [4] [%] |
| --- | --- | --- | --- | --- |
| CO/N=C(\COCc1cc(C(F)(F)F)cc(C(F)(F)F)c1)C(CCN1CCC(O)(c2ccccc2)CC1)c1ccc(Cl)c(Cl)c1 (configuration not stated) | 21 | 25 |  |  |
| NC(=O)CNC(COCc1cc(C(F)(F)F)cc(C(F)(F)F)c1)C(CCN1CCC(O)(c2ccccc2)CC1)c1ccc(Cl)c(Cl)c1 (configuration not stated) | 34 | 4 |  |  |
| NC(=O)CN[C@@H](COCc1cc(C(F)(F)F)cc(C(F)(F)F)c1)[C@H](CCN1CCC(O)(c2ccccc2)CC1)c1ccc(Cl)c(Cl)c1 | 34 | 9 |  |  |
| CO/N=C(/COCc1cc(C(F)(F)F)cc(C(F)(F)F)c1)C(CCN1CCC(O)(c2ccccc2)CC1)c1ccc(Cl)c(Cl)c1 (configuration not stated) |  | 25 |  | 35 |
| NC(=O)CN[C@H](COCc1cc(C(F)(F)F)cc(C(F)(F)F)c1)[C@@H](CCN1CCC(O)(c2ccccc2)CC1)c1ccc(Cl)c(Cl)c1 |  | 5 | 10 |  |
| CO/N=C(\COCc1cc(C(F)(F)F)cc(C(F)(F)F)c1)[C@@H](CCN1CCC(O)(c2ccccc2)CC1)c1ccc(Cl)c(Cl)c1 | 397 | 33 |  |  |
| CO/N=C(\COCc1cc(C(F)(F)F)cc(C(F)(F)F)c1)[C@H](CCN1CCC(O)(c2ccccc2)CC1)c1ccc(Cl)c(Cl)c1 | 7 | 20 |  |  |

Continued, in another order:

| Ki [1] [nM] | Ki [2] [nM] | inhibition [3] [%] | SMILES | inhibition [4] [%] |
| --- | --- | --- | --- | --- |
| 358 | 34 |  | O/N=C(/COCc1cc(C(F)(F)F)cc(C(F)(F)F)c1)C(CCN1CCC(O)(c2ccccc2)CC1)c1ccc(Cl)c(Cl)c1 (configuration not stated) |  |
| 122 | 24 |  | O/N=C(\COCc1cc(C(F)(F)F)cc(C(F)(F)F)c1)C(CCN1CCC(O)(c2ccccc2)CC1)c1ccc(Cl)c(Cl)c1 (configuration not stated) |  |
|  | 0.7 | 27 | NC(=O)CN[C@@H](COCc1cc(C(F)(F)F)cc(C(F)(F)F)c1)[C@@H](CCN1CCC(O)(c2ccccc2)CC1)c1ccc(Cl)c(Cl)c1 |  |
|  | 0.9 |  | NC(=O)CN[C@H](COCc1cc(C(F)(F)F)cc(C(F)(F)F)c1)C(c1ccccc1)c1ccccc1 |  |
| 0.5 |  |  | CC(=O)NC1(c2ccccc2)CCN(CC[C@H](CN(C)C(=O)c2ccccc2)c2ccc(Cl)c(Cl)c2)CC1 [SAREDUTANT] |  |
